Data as given in patent publication EP0465913B1, “Diaminotrifluoromethylpyrimidine derivatives, process for their production and phospholipase A2 inhibitor containing them” (ISHIHARA SANGYO KAISHA, LTD., priority 1990, dated 1992).
Counter-ions that a name gives are not always drawn.

Columns and labels:
[1] = test system: increased vascular permeability induced by acetic acid; assay: Inhibitory activity on increased vascular permeability induced by acetic acid (Mouse Whittle method, method C); format: in vivo, ddy male mice; conditions: amount of leaked dye
How it was run: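 ddy male mice (4-5 per group) dosed orally with compound in 2% Tween 80 suspension or aqueous salt solution. Dye measured at 600 nm; inhibition % calculated versus vehicle control leakage.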

[2] = Acute toxicity, intravenous injection (LD50); format: in vivo; conditions: mouse, in vivo, iv, ddy male mice, sodium salt, mortality over one week
Description: Administration route: Intravenous injection
Using ddy male mice (body weight: 25 - 30 g), each test group consisted of 5 mice. A test compound was dissolved in the form of a sodium salt in a physiological saline or in a 5% glucose aqueous solution, and intravenously injected in an amount of 0.1 ml/10 g body weight. After the injection, the mortality rate was obtained over one week, and the median lethal dose LD50 (mg/kg) was determined.

[3] = target: T1, Porcine pancreatic phospholipase A2 (Sus scrofa, UniProt P00592); assay: Phospholipase A2 inhibitory activity, method B (L-α-dipalmitoylphosphatidylcholine substrate); format: biochemical; conditions: 37°C for 30 minutes; for inhibition at 1000 ppm: 1,000 ppm, read-out: % inhibition of PLA2 (1,000 ppm)
T1 construct: purchased Boehringer Mannheim·Yamanouchi K.K. 161454·122416
T1 sequence (P00592 23-146): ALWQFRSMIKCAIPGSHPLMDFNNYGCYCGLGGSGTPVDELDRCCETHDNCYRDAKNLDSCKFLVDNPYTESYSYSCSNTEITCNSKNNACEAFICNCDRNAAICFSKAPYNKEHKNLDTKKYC
How it was run: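 Substrate: L-α-dipalmitoylphosphatidylcholine/sodium cholate mixed micelles in 250 mM NaCl, 100 mM Tris-HCl pH 8.0. Enzyme (10 µg/ml stock) incubated with compound in buffer containing CaCl2 and BSA, 30 min at 37 °C. Released free fatty acid measured by ACS-ACOD at 540 nm; % inhibition derived from apparent enzyme concentration read off a standard curve.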

carrageenin edema = assay: Inhibitory activity on carrageenin edema; format: in vivo, Wistar male rats; conditions: rat, paw swelling volume three hours after carrageenin; for inhibition in vivo at 100 mg/kg: po, 3 h, dose 100 mg/kg orally, read-out: Inhibition rate (%); for Inhibition rate (%): dose 50 mg/kg orally
How it was run: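 Male Wistar rats (about 100 g, 5 per group) dosed orally at 200, 100, 50 or 25 mg/kg as 2% Tween 80 suspension or aqueous salt solution, 1 h before subplantar injection of 0.1 ml 1% λ-carrageenin. Paw swelling measured at 3 h; % inhibition versus control group mean swelling.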

Compound | Inhibition rate (%) ([1]; dose 10 mg/kg orally) | LD50 at 168 h [2] [mg/kg] | inhibition at 1000 ppm [3] [%] | inhibition in vivo at 100 mg/kg (carrageenin edema) [%] | Inhibition rate (%) (carrageenin edema; 50 mg/kg) | Inhibition rate (%) ([1]; dose 20 mg/kg orally, 20 mg/kg) | % inhibition of PLA2 (1,000 ppm) [3] [%] | Inhibition rate (%) ([1]; dose 100 mg/kg orally) | Inhibition rate (%) ([1]; dose 20 mg/kg orally) | Inhibition rate (%) (carrageenin edema)
CS(=O)(=O)Nc1ncc(C(F)(F)F)cc1NC(=O)c1ccc(F)cc1 [Compound No. 10, N-(2-methylsulfonylamino-5-trifluoromethyl-3-pyridyl)-4-fluorobenzamide] | 42 | 50 to 100 | 51 | 28 |  |  |  |  |  | 
CCS(=O)(=O)Nc1ncc(C(F)(F)F)cc1NC(=O)C1CCCCC1 [Compound No. 47, N-(2-ethylsulfonylamino-5-trifluoromethyl-3-pyridyl)cyclohexanecarboxamide] | 46 | 58 | 90 |  | 41 |  |  |  |  | 
CCS(=O)(=O)Nc1ncc(C(F)(F)F)cc1NC(=O)C1CCCCC1 [Compound No. 251, sodium salt of N-(2-ethylsulfonylamino-5-trifluoromethyl-3-pyridyl)cyclohexanecarboxamide] |  |  |  |  | 30 | 43 | 85 |  |  | 
CS(=O)(=O)Nc1ncc(C(F)(F)F)cc1NC(=O)C(F)(F)C(F)(F)F [compound 13] |  | > 70 | 51 | 21 |  |  |  | 57 |  | 
CS(=O)(=O)Nc1ncc(C(F)(F)F)cc1NC(=O)c1ccccc1 [compound 43] |  | 78 | 49 |  |  |  |  |  | 48 | 31
CS(=O)(=O)Nc1ncc(C(F)(F)F)cc1NC(=O)C1CCCC1 [compound 45] |  | 98 | 41 |  |  |  |  |  | 29 | 23
Cc1cccc(C(=O)Nc2cc(C(F)(F)F)cnc2NS(C)(=O)=O)c1 [compound 78] | 32 | > 60 | 51 |  |  |  |  |  |  | 26
CS(=O)(=O)Nc1ncc(C(F)(F)F)cc1NC(=O)c1cccc(Cl)c1 [compound 79] |  |  | 65 |  |  |  |  |  | 67 | 20
CS(=O)(=O)Nc1ncc(C(F)(F)F)cc1NC(=O)c1cc2ccccc2s1 [compound 86] |  | > 40 | 93 |  |  |  |  |  | 42 | 27
CS(=O)(=O)Nc1ncc(C(F)(F)F)cc1NC(=O)c1ccc2c(c1)CCC2 [compound 87] | 28 | 75 | 88 |  |  |  |  |  |  | 21
C/C=C/C(=O)Nc1cc(C(F)(F)F)cnc1NS(=O)(=O)CC [compound 93, N-(2-ethylsulfonylamino-5-trifluoromethyl-3-pyridyl)crotonamide] | 40 |  | 48 |  |  |  |  |  |  | 22
CCS(=O)(=O)Nc1ncc(C(F)(F)F)cc1NC(=O)C1CCCC1 [compound 94] |  |  | 63 |  |  |  |  |  | 53 | 23
